Laboratory results reported in PubChem BioAssay AID330 (DTP/NCI, 2004).
Values joined by “and” are separate entries in the source; they are usually repeats but may differ in a detail not shown here. Equal entries are not always repeated. Toxic doses and inconclusive results are not listed.

Tested on: P388 leukemia ip, CD2F1 mice, survival T/C
Experiment: NCI In Vivo Anticancer Drug Screen. Data for tumor model P388 Leukemia (intraperitoneal) in CD2F1 (CDF1) mice
Settings: endpoint: median survival time, higher = longer survival
Procedure, shortened: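 Mice carrying the transplanted tumor received test compound or vehicle. Survival was recorded in each group, and the value is the treated-group measurement divided by that of the vehicle-treated control group.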

[1] = dose: 50.0 mg/kg/injection, schedule: Q01DX005 (ip), vehicle: saline with Tween-80
[2] = dose: 100.0 mg/kg/injection, schedule: Q01DX005 (ip), vehicle: saline with Tween-80
[3] = dose: 200.0 mg/kg/injection, schedule: Q01DX005 (ip), vehicle: saline with Tween-80
[4] = dose: 25.0 mg/kg/injection, schedule: Q01DX009 (ip), vehicle: saline
[5] = dose: 50.0 mg/kg/injection, schedule: Q01DX009 (ip), vehicle: saline with Tween-80
[6] = dose: 50.0 mg/kg/injection, schedule: Q01DX009 (ip), vehicle: saline
[7] = dose: 25.0 mg/kg/injection, schedule: Q01DX009 (ip), vehicle: saline with Tween-80
[8] = dose: 100.0 mg/kg/injection, schedule: Q04DX003 (ip), vehicle: saline with Tween-80
[9] = dose: 200.0 mg/kg/injection, schedule: Q04DX003 (ip), vehicle: saline with Tween-80

## O=C(C=C(C(F)(F)F)C(F)(F)F)c1ccccc1[N+](=O)[O-]
dose: 1.32 mg/kg/injection, schedule: Q04DX003 (ip), vehicle: other
  T/C: 109 % of control
dose: 2.0 mg/kg/injection, schedule: Q04DX003 (ip), vehicle: other
  T/C: 100 % of control
dose: 3.0 mg/kg/injection, schedule: Q04DX003 (ip), vehicle: other
  T/C: 109 % of control
dose: 4.5 mg/kg/injection, schedule: Q04DX003 (ip), vehicle: other
  T/C: 104 % of control
dose: 6.25 mg/kg/injection, schedule: Q04DX003 (ip), vehicle: other
  T/C: 109 % of control
dose: 25.0 mg/kg/injection, schedule: Q04DX003 (ip), vehicle: other
  T/C: 86 % of control

## Cc1ccccc1N=C(N)Nc1ccccc1C
dose: 2.5 mg/kg/injection, schedule: Q01DX009 (ip), vehicle: saline with Tween-80
  T/C: 95 % of control
dose: 5.0 mg/kg/injection, schedule: Q01DX009 (ip), vehicle: saline with Tween-80
  T/C: 100 % of control
dose: 10.0 mg/kg/injection, schedule: Q01DX009 (ip), vehicle: saline with Tween-80
  T/C: 100 % of control

## Cc1ccnc(Nc2nnc(Nc3cc(C)ccn3)c3ccccc23)c1
[1]
  T/C: 100 % of control
[2]
  T/C: 97 % of control
[3]
  T/C: 97 % of control

## COC(=O)c1nc(=S)[nH]c(C(=O)OC)c1C(=O)c1ccccc1
dose: 60.0 mg/kg/injection, schedule: Q01DX005 (ip), vehicle: Klucel + Tween-80
  T/C: 101 % of control
dose: 120.0 mg/kg/injection, schedule: Q01DX005 (ip), vehicle: Klucel + Tween-80
  T/C: 93 % of control
dose: 240.0 mg/kg/injection, schedule: Q01DX005 (ip), vehicle: Klucel + Tween-80
  T/C: 92 % of control

## CCCCCCCCCCCCCCCCN1C(=O)/C(=C\c2ccc(O)cc2)SC1=Nc1ccccc1
dose: 12.5 mg/kg/injection, schedule: Q01DX009 (ip), vehicle: saline
  T/C: 90 % of control
[4]
  T/C: 88 % of control
[5]
  T/C: 95 % of control
[6]
  T/C: 91 % of control
dose: 200.0 mg/kg/injection, schedule: Q01DX009 (ip), vehicle: saline with Tween-80
  T/C: 92 % of control

## O=C1CC2c3ccccc3C1c1ccccc12
[1]
  T/C: 95 % of control
[2]
  T/C: 94 % of control
[3]
  T/C: 96 % of control

## Fc1cccc(CSc2ncnc3nc[nH]c23)c1
[7]
  T/C: 104 % of control
dose: 25.0 mg/kg/injection, schedule: Q04DX003 (ip), vehicle: saline with Tween-80
  T/C: 95 % of control
[5]
  T/C: 95 % of control
dose: 50.0 mg/kg/injection, schedule: Q04DX003 (ip), vehicle: saline with Tween-80
  T/C: 90 % of control
dose: 100.0 mg/kg/injection, schedule: Q01DX009 (ip), vehicle: saline with Tween-80
  T/C: 104 % of control
[8]
  T/C: 100 % of control and 104 % of control
[9]
  T/C: 100 % of control

## NC1CCOC1=O (centres undefined)
dose: 50.0 mg/kg/injection, schedule: Q01DX005 (ip), vehicle: saline
  T/C: 100 % of control
dose: 100.0 mg/kg/injection, schedule: Q01DX005 (ip), vehicle: saline
  T/C: 103 % of control
dose: 200.0 mg/kg/injection, schedule: Q01DX005 (ip), vehicle: saline
  T/C: 100 % of control

## CCc1c2cc(OC)c(OC)cc2cc2c3cc(OC)c(OC)cc3cc[n+]12 (tested in a mixture with another compound)
dose: 8.8 mg/kg/injection, schedule: Q04DX003 (ip), vehicle: saline
  T/C: 108 % of control
dose: 20.0 mg/kg/injection, schedule: Q04DX003 (ip), vehicle: saline
  T/C: 122 % of control
[4]
  T/C: 151 % of control
dose: 29.3 mg/kg/injection, schedule: Q01DX009 (ip), vehicle: saline with Tween-80
  T/C: 153 % of control
dose: 37.5 mg/kg/injection, schedule: Q01DX009 (ip), vehicle: saline with Tween-80
  T/C: 167 % of control
dose: 44.0 mg/kg/injection, schedule: Q01DX009 (ip), vehicle: saline with Tween-80
  T/C: 170 % of control
[6]
  T/C: 178 % of control
dose: 66.0 mg/kg/injection, schedule: Q01DX009 (ip), vehicle: saline with Tween-80
  T/C: 201 % of control
dose: 75.0 mg/kg/injection, schedule: Q01DX009 (ip), vehicle: saline with Tween-80
  T/C: 208 % of control
dose: 88.0 mg/kg/injection, schedule: Q04DX003 (ip), vehicle: saline
  T/C: 150 % of control
[8]
  T/C: 154 % of control
dose: 150.0 mg/kg/injection, schedule: Q01DX009 (ip), vehicle: saline with Tween-80
  T/C: 234 % of control
dose: 150.0 mg/kg/injection, schedule: Q01DX009 (ip), vehicle: saline
  T/C: 244 % of control and 92 % of control
dose: 200.0 mg/kg/injection, schedule: Q01DX009 (ip), vehicle: saline
  T/C: 171 % of control
[9]
  T/C: 181 % of control
dose: 200.0 mg/kg/injection, schedule: Q04DX003 (ip), vehicle: saline
  T/C: 150 % of control and 191 % of control
dose: 225.0 mg/kg/injection, schedule: Q01DX009 (ip), vehicle: saline
  T/C: 218 % of control
dose: 300.0 mg/kg/injection, schedule: Q04DX003 (ip), vehicle: saline
  T/C: 195 % of control
dose: 400.0 mg/kg/injection, schedule: Q04DX003 (ip), vehicle: saline with Tween-80
  T/C: 90 % of control
dose: 400.0 mg/kg/injection, schedule: Q04DX003 (ip), vehicle: saline
  T/C: 104 % of control

## COC(=O)C1=C/C=C\CN/C=C\1C(=O)OC
dose: 100.0 mg/kg/injection, schedule: Q04DX003 (ip), vehicle: alcohol
  T/C: 97 % of control
dose: 200.0 mg/kg/injection, schedule: Q04DX003 (ip), vehicle: alcohol
  T/C: 97 % of control
dose: 400.0 mg/kg/injection, schedule: Q04DX003 (ip), vehicle: alcohol
  T/C: 106 % of control

## CC/C(=N\NC(=S)SC)c1ccccn1
dose: 6.25 mg/kg/injection, schedule: Q01DX005 (ip), vehicle: saline with Tween-80
  T/C: 106 % of control
dose: 12.5 mg/kg/injection, schedule: Q01DX005 (ip), vehicle: saline with Tween-80
  T/C: 94 % of control and 96 % of control and 97 % of control
dose: 25.0 mg/kg/injection, schedule: Q01DX005 (ip), vehicle: saline with Tween-80
  T/C: 105 % of control and 110 % of control and 94 % of control

## CCOC(=O)Nc1cc2c(c(N)n1)N=C(c1ccccc1)CN2
dose: 2.6 mg/kg/injection, schedule: Q04DX003 (ip), vehicle: saline with Tween-80
  T/C: 119 % of control
dose: 3.0 mg/kg/injection, schedule: Q01DX005 (ip), vehicle: saline with Tween-80
  T/C: 117 % of control and 123 % of control
dose: 3.0 mg/kg/injection, schedule: Q01DX009 (ip), vehicle: saline with Tween-80
  T/C: 156 % of control
dose: 6.0 mg/kg/injection, schedule: Q01DX009 (ip), vehicle: saline with Tween-80
  T/C: 105 % of control
dose: 6.0 mg/kg/injection, schedule: Q04DX003 (ip), vehicle: saline with Tween-80
  T/C: 151 % of control
dose: 6.25 mg/kg/injection, schedule: Q01DX001 (ip), vehicle: saline with Tween-80
  T/C: 118 % of control
dose: 9.0 mg/kg/injection, schedule: Q04DX003 (ip), vehicle: saline with Tween-80
  T/C: 173 % of control
dose: 12.0 mg/kg/injection, schedule: Q01DX001 (ip), vehicle: saline with Tween-80
  T/C: 151 % of control and 157 % of control
dose: 12.5 mg/kg/injection, schedule: Q01DX001 (ip), vehicle: saline with Tween-80
  T/C: 150 % of control
dose: 18.0 mg/kg/injection, schedule: Q01DX001 (ip), vehicle: saline with Tween-80
  T/C: 168 % of control

## O=C(Nc1ccccc1)c1ccco1
dose: 100.0 mg/kg/injection, schedule: Q01DX001 (ip), vehicle: Klucel (hydroxypropylcellulose) (HPC)
  T/C: 106 % of control
dose: 200.0 mg/kg/injection, schedule: Q01DX001 (ip), vehicle: Klucel (hydroxypropylcellulose) (HPC)
  T/C: 102 % of control
dose: 400.0 mg/kg/injection, schedule: Q01DX001 (ip), vehicle: Klucel (hydroxypropylcellulose) (HPC)
  T/C: 96 % of control

## CC1C(=O)CCC2(C)C1CCC1C3CCC(O)C3(C)CCC12 (centres undefined)
dose: 12.5 mg/kg/injection, schedule: Q01DX009 (ip), vehicle: saline with Tween-80
  T/C: 95 % of control
[7]
  T/C: 109 % of control
[5]
  T/C: 95 % of control

## CCN1CCC(OC(=O)c2ccccc2)(c2nccc3ccccc23)CC1
[5]
  T/C: 112 % of control

## COc1ccc2c(c1)C(=O)[C@]1(C)C3(C)OC(=O)C(c4ccccc43)[C@]21C (some centres undefined)
dose: 60.0 mg/kg/injection, schedule: Q01DX005 (ip), vehicle: saline with Tween-80
  T/C: 110 % of control
dose: 120.0 mg/kg/injection, schedule: Q01DX005 (ip), vehicle: saline with Tween-80
  T/C: 105 % of control
dose: 240.0 mg/kg/injection, schedule: Q01DX005 (ip), vehicle: saline with Tween-80
  T/C: 98 % of control
